Tests used:
[1] = Inhibition of Paracentrotus lividus embryo division
[2] = Inhibition of Paracentrotus lividus embryo division at 250 ug/mL

ED100 [1] [µg/mL] | Activity [2] | SMILES
30 |  | CC[C@H](C)[C@H]1NC(=O)c2coc(n2)[C@H](C)NC(=O)[C@H]2COC(=N2)[C@@H](Cc2ccccc2)NC(=O)c2csc1n2 [RAOCYCLAMIDE A]
 | Not Active | CC[C@H](C)[C@H]1NC(=O)c2coc(n2)[C@H](C)NC(=O)[C@@H](CO)NC(=O)[C@@H](Cc2ccccc2)NC(=O)c2csc1n2 [RAOCYCLAMIDE B]

From ChEMBL document CHEMBL1158208, “Raocyclamides A and B, Novel Cyclic Hexapeptides Isolated from the Cyanobacterium Oscillatoria raoi” (J Nat Prod, 1996)
